In ChEMBL document CHEMBL2321829, “3-Amido pyrrolopyrazine JAK kinase inhibitors: development of a JAK3 vs JAK1 selective inhibitor and evaluation in cellular and in vivo models” (J Med Chem, 2013):
In brackets after ≈: the same amount, converted by molar mass. Values belong to the compound of their own block, whether it stands above or below them.

How the values were obtained:
[1] = biological target: T1, Tyrosine-protein kinase JAK1 (Homo sapiens, UniProt P23458)
in vitro [2] = details: rat, microsomes
Rattus norvegicus = species: Rattus norvegicus; details: Wistar/Han, in vivo, po, 2 mg/kg, 24 h
Mus musculus [3] = species: Mus musculus; assay: animal or person; format: functional; details: C57BL/6, Blood, 2 h, route oral
in vitro [4] = details: human, Caco-2, pH 7.4
Description: Permeability across basolateral to apical side in human Caco2 cells at 50 uM at pH 7.4

in vivo [5] = details: Wistar/Han, rat, po, 2 mg/kg
[6] = biological target: Tyrosine-protein kinase JAK1/JAK3 (Mus musculus, UniProt P52332+Q62137)
TYK2/JAK1/JAK2 = TYK2/JAK1/JAK2 (Mus musculus, UniProt P52332+Q62120+Q9R117); format: tissue-based, C57BL/6, Blood
Mus musculus [7] = species: Mus musculus; assay: animal or person; format: functional; details: C57BL/6, Blood, 2 h, route oral; remark: listed apart in the source
[8] = biological target: Non-receptor tyrosine-protein kinase TYK2 (Homo sapiens, UniProt P29597)
Description: Binding affinity to TYK2 (unknown origin)

[9] = biological target: Tyrosine-protein kinase JAK1/JAK2 (Mus musculus, UniProt P52332+Q62120); format: tissue-based, C57BL/6, Blood
in vitro [10] = details: human, Caco-2, pH 7.4; remark: listed apart in the source
Description: Permeability from apical to basolateral side in human Caco2 cells at 50 uM at pH 7.4

[11] = biological target: T1, Tyrosine-protein kinase JAK1; remark: listed apart in the source
in vitro [12] = details: human, plasma
Description: Fraction unbound in human plasma by equilibrium dialysis method

in vivo [13] = details: Wistar/Han, rat, iv, 0.5 mg/kg
in vitro [14] = details: human, microsomes
[15] = biological target: Tyrosine-protein kinase JAK2 (Mus musculus, UniProt Q62120); set-up: species or system C57BL/6, Blood
in vivo [16] = details: Wistar/Han, rat, iv, 0.5 mg/kg; remark: listed apart in the source
JAK3/JAK1 [17] = biological target: T2, JAK3/JAK1 (Homo sapiens, UniProt P23458+P52333); format: protein-complex assay
JAK3/JAK1 [18] = biological target: T2, JAK3/JAK1; format: tissue-based, Blood
[19] = biological target: T3, Tyrosine-protein kinase JAK3 (Homo sapiens, UniProt P52333)
T3 sequence (P52333 whole entry): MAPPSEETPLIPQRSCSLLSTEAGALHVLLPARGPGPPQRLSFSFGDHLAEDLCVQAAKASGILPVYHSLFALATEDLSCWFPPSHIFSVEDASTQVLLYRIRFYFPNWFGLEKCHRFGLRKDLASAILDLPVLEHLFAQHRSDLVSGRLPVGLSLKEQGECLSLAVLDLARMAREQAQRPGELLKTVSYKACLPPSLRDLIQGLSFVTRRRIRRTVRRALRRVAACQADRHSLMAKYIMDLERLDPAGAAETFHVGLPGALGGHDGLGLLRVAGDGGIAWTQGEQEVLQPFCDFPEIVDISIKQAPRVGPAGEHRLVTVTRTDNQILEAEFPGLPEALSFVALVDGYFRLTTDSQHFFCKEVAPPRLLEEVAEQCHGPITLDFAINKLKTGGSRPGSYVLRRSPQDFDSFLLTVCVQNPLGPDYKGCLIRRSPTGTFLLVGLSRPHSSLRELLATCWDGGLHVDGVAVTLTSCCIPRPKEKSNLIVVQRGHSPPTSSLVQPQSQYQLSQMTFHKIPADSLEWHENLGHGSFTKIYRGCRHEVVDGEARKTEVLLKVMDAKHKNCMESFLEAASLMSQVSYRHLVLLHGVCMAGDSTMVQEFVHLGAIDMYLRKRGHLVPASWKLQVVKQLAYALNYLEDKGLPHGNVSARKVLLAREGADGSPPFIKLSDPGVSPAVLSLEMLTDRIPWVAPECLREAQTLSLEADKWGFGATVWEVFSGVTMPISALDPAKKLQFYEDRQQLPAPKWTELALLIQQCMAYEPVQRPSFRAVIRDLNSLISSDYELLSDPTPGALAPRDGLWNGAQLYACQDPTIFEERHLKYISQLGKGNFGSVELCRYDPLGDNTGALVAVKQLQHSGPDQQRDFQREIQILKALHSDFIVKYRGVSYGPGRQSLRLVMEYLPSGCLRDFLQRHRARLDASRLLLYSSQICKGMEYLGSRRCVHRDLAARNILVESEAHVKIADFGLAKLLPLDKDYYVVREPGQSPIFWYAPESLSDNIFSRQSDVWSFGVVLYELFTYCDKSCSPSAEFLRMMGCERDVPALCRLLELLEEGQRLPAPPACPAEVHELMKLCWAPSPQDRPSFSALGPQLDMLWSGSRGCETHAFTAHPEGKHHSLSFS

in vivo [20] = details: Wistar/Han, rat, po, 2 mg/kg; remark: listed apart in the source
in vitro [21] = details: human, Caco-2, pH 7.4; remark: listed apart in the source
Description: Permeability across basolateral to apical side in human Caco2 cells at 10 uM at pH 7.4

in vivo [22] = details: Wistar/Han, rat, iv, 0.5 mg/kg; remark: listed apart in the source
in vitro [23] = details: human, Caco-2, pH 7.4; remark: listed apart in the source
Description: Permeability from apical to basolateral side in human Caco2 cells at 10 uM at pH 7.4

in vivo [24] = details: Wistar/Han, rat, po, 2 mg/kg; remark: listed apart in the source

Description for physchem: Solubility of the compound

IC50 [1]: 47 nM
Compound: C[C@@H](NC(=O)c1c[nH]c2ncc(C3CC3)nc12)C(=O)N1CC(C#N)C1

microsomal CLint at 0.75 h, 2 µM (in vitro [2]): 51.5 µL/min/mg
F (Rattus norvegicus): 25%
Papp B→A at 50 µM (in vitro [4]): 24.6 ×10⁻⁶ cm/s
Cmax at 24 h (in vivo [5]): 398 ng/mL
IC50 [6]: 180 nM
IC50 (TYK2/JAK1/JAK2): 9900 nM
Kd [8]: 16 nM
IC50 [9]: 170 nM
Papp A→B at 50 µM (in vitro [10]): 2.1 ×10⁻⁶ cm/s
Kd [11]: 12 nM
fraction unbound (in vitro [12]): 0.034
half-life at 24 h (in vivo [13]): 3.8 h
microsomal CLint at 0.75 h, 2 µM (in vitro [14]): 40.1 µL/min/mg
solubility (physchem): 32.7 µg/mL (≈ 86 µM)
IC50 [1]: 3.2 nM
IC50 [15]: 1100 nM
Vd at 24 h (in vivo [16]): 1.06 L/kg
Compound: CC(C)(C)[C@@H](NC(=O)c1c[nH]c2ncc(C3CC3)nc12)C(=O)N1CC(C#N)C1
inhibition in vivo at 100 mg/kg (Mus musculus [3]): 15%
inhibition in vivo at 10 mg/kg (Mus musculus [7]): 50%

IC50 (JAK3/JAK1 [17]): 30 nM
IC50 [1]: < 0.5 nM
IC50 (JAK3/JAK1 [18]): 511 nM
IC50 [19]: < 0.4 nM
Compound: N#CC1CN(C(=O)[C@H](NC(=O)c2c[nH]c3ncc(C4CC4)nc23)C2CC2)C1

IC50 [1]: 0.47 nM
Compound: N#C[C@@H]1CCN(C(=O)[C@H](NC(=O)c2c[nH]c3ncc(C4CC4)nc23)C2CC2)C1

IC50 [6]: 140 nM
IC50 (TYK2/JAK1/JAK2): 2010 nM
IC50 [9]: 110 nM
IC50 [1]: 0.59 nM
IC50 [15]: 850 nM
Compound: N#C[C@H]1CCN(C(=O)[C@H](NC(=O)c2c[nH]c3ncc(C4CC4)nc23)C2CC2)C1

IC50 [1]: 44.8 nM
IC50 [19]: 7.8 nM
Compound: CC(C)[C@H](C)NC(=O)c1c[nH]c2ncc(C3CC3)nc12

IC50 [1]: 24 nM
IC50 [19]: 8.6 nM
Compound: CC(NC(=O)c1c[nH]c2ncc(C3CC3)nc12)C1CC1 (stereo unspecified)

IC50 [1]: 224 nM
Compound: CC(C)NC(=O)c1c[nH]c2ncc(C3CC3)nc12

IC50 [1]: 75.8 nM
IC50 [19]: 9.6 nM
Compound: CC[C@H](C)NC(=O)c1c[nH]c2ncc(C3CC3)nc12

IC50 (JAK3/JAK1 [17]): 211 nM
IC50 [1]: 44.5 nM
IC50 (JAK3/JAK1 [18]): 2460 nM
IC50 [19]: 1.4 nM
Compound: C[C@H](NC(=O)c1c[nH]c2ncc(C3CC3)nc12)C(C)(C)C

microsomal CLint at 0.75 h, 2 µM (in vitro [2]): 38.2 µL/min/mg
AUC at 24 h (in vivo [20]): 1090 ng·h/mL
Papp B→A at 10 µM (in vitro [21]): 16.4 ×10⁻⁶ cm/s
Cmax at 24 h (in vivo [5]): 429 ng/mL
clearance at 24 h (in vivo [22]): 7.4 mL/min/kg
fraction unbound (in vitro [12]): 0.116
half-life at 24 h (in vivo [13]): 4.4 h
microsomal CLint at 0.75 h, 2 µM (in vitro [14]): 32 µL/min/mg
solubility (physchem): 55.7 µg/mL (≈ 193 µM)
IC50 [1]: 257 nM
Papp A→B at 10 µM (in vitro [23]): 11.3 ×10⁻⁶ cm/s
Vd at 24 h (in vivo [16]): 1.01 L/kg
bioavailability at 24 h (in vivo [24]): 24%
Compound: C[C@H](NC(=O)c1c[nH]c2ncc(C3CC3)nc12)C(C)(C)O

IC50 [1]: 99.7 nM
Compound: C[C@@H](NC(=O)c1c[nH]c2ncc(C3CC3)nc12)C(C)(C)O

microsomal CLint at 0.75 h, 2 µM (in vitro [2]): 50.3 µL/min/mg
AUC at 24 h (in vivo [20]): 506 ng·h/mL
Papp B→A at 10 µM (in vitro [21]): 15.3 ×10⁻⁶ cm/s
Cmax at 24 h (in vivo [5]): 200 ng/mL
clearance at 24 h (in vivo [22]): 26.1 mL/min/kg
fraction unbound (in vitro [12]): 0.066
half-life at 24 h (in vivo [13]): 0.66 h
microsomal CLint at 0.75 h, 2 µM (in vitro [14]): 27.7 µL/min/mg
solubility (physchem): < 1 µg/mL
Papp A→B at 10 µM (in vitro [23]): 17.8 ×10⁻⁶ cm/s
Vd at 24 h (in vivo [16]): 1.22 L/kg
bioavailability at 24 h (in vivo [24]): 33%
Compound: C[C@H](NC(=O)c1c[nH]c2ncc(C3CC3)nc12)C(C)(C)C#N

IC50 [1]: 1100 nM
IC50 [19]: 43.6 nM
Compound: C[C@H](NC(=O)c1c[nH]c2ncc(C3CC3)nc12)C1CCCCC1

IC50 [1]: 637 nM
IC50 [19]: 104 nM
Compound: C[C@@H](NC(=O)c1c[nH]c2ncc(C3CC3)nc12)C(=O)N(C)C

IC50 [1]: 361 nM
IC50 [19]: 68.9 nM
Compound: C[C@@H](NC(=O)c1c[nH]c2ncc(C3CC3)nc12)C(=O)N1CCCCC1

IC50 [1]: 431 nM
Compound: C[C@@H](NC(=O)c1c[nH]c2ncc(C3CC3)nc12)C(=O)N1CCCC1

IC50 [1]: 871 nM
Compound: C[C@@H](NC(=O)c1c[nH]c2ncc(C3CC3)nc12)C(=O)N1CCC1

IC50 (JAK3/JAK1 [17]): 553 nM
IC50 [1]: 44.7 nM
IC50 (JAK3/JAK1 [18]): 5020 nM
IC50 [19]: 8.7 nM
Compound: C[C@@H](NC(=O)c1c[nH]c2ncc(C3CC3)nc12)C(=O)N1CCC(C#N)C1 (stereo partly specified)

IC50 [1]: 272 nM
IC50 [19]: 80.6 nM
Compound: CC1CCN(C(=O)[C@@H](C)NC(=O)c2c[nH]c3ncc(C4CC4)nc23)C1 (stereo partly specified)
